In assay [1] the test system is CA1D cells. Nature of the assay: Seahorse XF Cell Mito Stress Test (oxygen consumption rate). To be noted: siTROLL-8 vs siNT CA1D cells; OCR normalized to groups without inhibitor; Etomoxir 4.0 μM, UK5099 2.0 μM, BPTES 3.0 μM. The class given is cell-based, human. As for the experimental part: The oxygen consumption rate (OCR) of cells was measured on the Seahorse XF96 extracellular flux analyzer (Agilent Technologies) using a Seahorse XF Cell Mito Stress Test kit in accordance with the manufacturer's instructions. Briefly, siNT or siTROLL-8 CA1D cells (3.0×10^4 cells/well) were seeded in 6 wells (technical replicates) of a 96 well Agilent Seahorse XF Cell Culture Microplate in full growth medium and attached overnight. Hydrate a sensor cartridge in Seahorse XF Calibrant in a non-CO2 incubator at 37° C. overnight. On the day of assay, cells were carefully washed and the growth medium was replaced with prewarmed Seahorse XF base medium (Agilent Technologies) supplemented with 5 mM HEPES, 10 mM glucose, 1 mM sodium pyruvate, and 2 mM L-Glutamine, pH 7.4). The plates of cells in assay medium were incubated in a non-CO2 incubator at 37° C. for 1 h. Prepare compound stock solutions for loading sensor cartridge ports and load the XF96 sensor cartridge to Seahorse XF96 analyzer. Take three basal measurements and determine oxygen and proton concentration in the medium. […]

Assay [2] relates to CPT1A. Put plainly: LC-MS of carnitine and fatty acyl-carnitine to reflect CPT1A activity. The class given is cell-based, human. Here is the method: 1.5×10^6 CA1D cells were transfected with either siNT (negative control) or siTROLL-8. 48 h after the transfection, the cells were collected and washed 2-3 times with ice-cold PBS. To analyze global metabolite abundances regulated by TROLL-8, an aliquot of the internal standard mixture was added into siNT and siTROLL-8 cell samples for untargeted metabolomics analysis. The internal standards were obtained from Cambridge Isotope Labs and include the following labelled compounds: Glucose (2,3,4,5,6-^13C5), D-Glucose-6-phosphate (U-^13C6), D-Fructose-1,6-bisphosphate (U-^13C6), L-Serine (^13C3), Glycine (1,2-^13C2), L-Cysteine (3,3-D2), Phosphoenol Pyruvate (2,3-^13C2), Lactate (3,3,3-D3), Pyruvate (D3), Acetyl-1,2-^13C2 CoA, Citric Acid (2,2,4,4-D4), Alpha-Ketoglutaric Acid (1,2,3,4-^13C4), Succinic Acid (D4), Fumaric Acid (D4), DL-Malic Acid (2,3,3-D3), D-Fructose-6-phosphate (U-^13C6). 1 ml of precooled 80% methanol extraction solvent (kept in the −80° C. freezer at least 1 h prior to extraction) was added to the sample for protein precipitation. After addition of the extraction solvent, the samples were vortexed and centrifuged at 18,800×g (Microfuge 22R, Beckman Coulter) at 0° C. for 10 min. Then, the samples were incubated for 30 min in a −80° C. freezer to increase metabolite extraction. After incubation, the samples were immediately centrifuged at 18,800×g at 4° C. for 10 min. Then the supernatant was transferred to a new microcentrifuge tube for drying in SpeedVac vacuum concentrator (Thermo Fisher Scientific). The protein pellet was resolubilized using aqueous 20 mM HEPES with 8M urea for Bradford Assay to measure the protein concentration. Dried metabolites were re-dissolved in 20 μl aqueous 80% methanol. Ultra-high performance liquid chromatography-high resolution mass spectrometry (UHPLC-HRMS) was performed using a Vanquish UHPLC interfaced with a Q Exactive HF quadrupole-orbital ion trap mass spectrometer (Thermo, San Jose, CA). Chromatographic separation was performed using a SeQuant ZIC-pHILIC guard column (2.1 mm ID×20 mm length, 5 μm particle size) and a SeQuant ZIC-pHILIC LC column (2.1 mm ID×150 mm length, 5 μm particle size, MilliporeSigma, Burlington, MA). Mobile phase A was aqueous 10 mM ammonium carbonate and 0.05% ammonium hydroxide, and mobile phase B was 100% acetonitrile. The gradient program included the following steps: start at 80% B, a linear gradient from 80 to 20% B over 13 min, stay at 20% B for 2 min, return to 80% B in 0.1 min, and re-equilibration for 4.9 min for a total run time of 20 min. The flow rate was set to 0.250 ml/min. The autosampler was cooled to 5° C. and the column temperature was set to 30° C. Sample injection volume was 2 μl for both positive ion mode and negative ion mode electrospray ionization. Full MS was performed in positive and negative mode separately detecting ions from m/z 65 to m/z 900. MZmine software, version 3.39, was used to identify and quantify metabolites by matching by m/z and RT to an in-house library. Data normalization was carried out using the protein concentration. For acetyl-CoA detection, spike heavily labelled internal standards (3 labelled Acyl CoAs) into each sample. For fatty acyl-carnitine detection, spike heavily labelled internal standards (3 labelled Acyl Carnitine) into each sample. An aliquot (300 μl) of cold 80% methanol extraction solvent (leave in −80° C. at least one hour prior to the experiments) is added to the sample for protein precipitation. After vortexing, the samples are then incubated in the −80° C. freezer for 30 mins, followed by centrifugation at 18,800×g (Microfuge 22R, Beckman Coulter) at 0° C. for 10 mins. Then the supernatant is transferred to new Eppendorf tubes for drying in SpeedVac vacuum concentrator (Thermo Fisher Scientific). The protein pellet is left behind and proceeds for protein concentration measurement by Bradford Assay. […]

The mark [3] stands for this setting: CA1D cells with shCPT1A and CPT1A WT/KQ/KR overexpression, mutants compared to CPT1A overexpression.

Each structure is given as a SMILES string.

As for `CCOC(=O)[C@@]1(CCCCCCOc2ccc(Cl)cc2)CO1` [Etomoxir], in assay [1], the “impact of fuel oxidation inhibitor in basal respiration upon TROLL-8 depletion” value was “increased the impact”. For the same compound, in assay [2] (setting [3]), the fatty acylcarnitine level entry is on record as “reduced” and the free carnitine level result was “augmented”. In assay [2] (CA1D cells, 10 μM Etomoxir), the “long-chain fatty acylcarnitine levels” value is “significantly reduced”, the “medium-chain fatty acylcarnitine levels” value was “significantly reduced” and the “short-chain fatty acylcarnitine levels” value is “significantly reduced”. For the same compound, the “level of carnitine (substrate for CPT1A activity)” value in assay [2] (CA1D cells, siNT, siTROLL-8, siNT+Eto, 10 μM Etomoxir) was “increased”.

As for `N#C/C(=C\c1cn(-c2ccccc2)c2ccccc12)C(=O)O` [UK5099], the “impact of fuel oxidation inhibitor in basal respiration upon TROLL-8 depletion” value in assay [1] is “increased the impact”.

The values are drawn from US20250297323A1, “METHODS OF USING LONG NON-CODING RNA-8 (TROLL-8) AS A TARGET FOR CANCER DETECTION AND TREATMENT” (H. LEE MOFFITT CANCER CENTER AND RESEARCH INSTITUTE, INC., priority 2022, published 2025).
